Measured values reported in PubChem BioAssay (NCI).
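Exposure lasted 48 hours, with cells grown in 96-well plates and compounds tested at five concentrations. GI50 marks 50% less growth. TGI: total growth inhibition.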

What was measured:
Test in all cases: growth of human tumour cells (NCI), 48 h
LOX IMVI melanoma = system: LOX IMVI melanoma
SN12C renal = system: SN12C renal
SK-MEL-2 melanoma = system: SK-MEL-2 melanoma
HOP-62 NSCLC = system: HOP-62 NSCLC
HT29 colon = system: HT29 colon
MCF7 breast = system: MCF7 breast
SF-539 CNS = system: SF-539 CNS
786-0 renal = system: 786-0 renal
NCI-H226 lung = system: NCI-H226 lung
MDA-MB-435 = system: MDA-MB-435

Row | SMILES | GI50 (LOX IMVI melanoma) [µM] | TGI (LOX IMVI melanoma) [µM] | GI50 (SN12C renal) [µM] | TGI (SN12C renal) [µM] | GI50 (SK-MEL-2 melanoma) [µM] | TGI (SK-MEL-2 melanoma) [µM] | GI50 (HOP-62 NSCLC) [µM] | TGI (HOP-62 NSCLC) [µM] | GI50 (HT29 colon) [µM] | TGI (HT29 colon) [µM] | GI50 (MCF7 breast) [µM] | TGI (MCF7 breast) [µM] | GI50 (SF-539 CNS) [µM] | TGI (SF-539 CNS) [µM] | GI50 (786-0 renal) [µM] | TGI (786-0 renal) [µM] | GI50 (NCI-H226 lung) [µM] | TGI (NCI-H226 lung) [µM] | GI50 (MDA-MB-435) [µM] | TGI (MDA-MB-435) [µM]
1 | COc1cc2c3c(n(C)c(=O)c2cc1OC)-c1cc2c(cc1/C3=C\CCN)OCO2 | < 0.01 | 0.194 | 0.583 | 17.6 | 6.11 | 27 | 0.067 | 5.8 | 0.138 | > 34.8 | 0.094 | 1.3 | 0.215 | 3.74 | 0.132 | 6.21 | 0.517 | 2.42 | 0.538 | 9.56
2 | CN(C(=O)c1ccc(C(F)(F)F)cc1)c1ccc(Oc2ccc3c(c2)cc(C(=O)N2CCN(Cc4ccc(OC(F)F)cc4)CC2)n3C)nc1 | 0.882 | > 100 | > 100 | > 100 | 11.9 | > 100 |  | > 100 | 33.2 | > 100 | 0.515 | 43.4 | > 100 | > 100 | > 100 | > 100 | 1.44 | > 100 | 3.73 | > 100
3 | O=C(CSc1ccc(Cl)cc1)Nc1ccc(-c2nc3ccccc3s2)c(Cl)c1 | 5.07 | > 100 | 3.57 | 72.8 | 3.82 | 15.7 | 5.91 | 24.8 | 6.86 | > 100 | 4.67 | 39.2 | 14.5 | 32.7 | 3.94 | 24.7 | 4.9 | 64.1 | 3.72 | 35.4
4 | O=c1c2sccc2n(CC2COc3ccccc3O2)c(=O)n1O (centres undefined) | 6.45 | > 100 | 11.1 | > 100 | 23.5 | 80.7 | 8.41 | > 100 | 24.1 | > 100 | 5.17 | > 100 | 15.3 | > 100 | 41.7 | > 100 | 24.6 | 83.6 | 23.9 | > 100
5 | Cc1ccc(S(=O)(=O)Nc2ccccc2C(=O)c2ccc(C)c(C)c2)cc1 |  | > 100 |  | > 100 |  | > 100 |  | > 100 |  | > 100 |  | > 100 |  | > 100 |  | > 100 |  | > 100 |  | > 100
6 | COc1cccc(-c2nc(-c3ccc(NC(=O)C(C)C)cc3)[nH]c2-c2ccnc(Br)c2)c1 | 1.61 | 3.38 | 3.31 | > 100 | 2.3 | 6.34 | 3.44 | > 100 | 3.07 | > 100 | 1.67 | 5.2 | 1.78 | 6.56 | 1.3 | > 100 | 2.53 | 21.4 | 3.12 | > 100
7 | O=C(Nc1ccc(Cl)cc1)c1cccc(NC2=C(Cl)C(=O)N(Cc3ccccc3)C2=O)c1 | 11.1 | 23.2 | 7.79 | 24.2 | 14.9 | 41.5 | 10.3 | 22 | 32.4 | > 100 | 10.3 | 42.3 | 4.18 | 19.1 | 7.83 | 20.9 | 4.31 | 21.3 | 23.9 | > 100
8 | O=C(/C=C/c1ccc(Cl)cc1)c1ccc(Nc2ccnc3cc(Cl)ccc23)cc1 | > 46.6 | > 100 | > 100 | > 100 | > 100 | > 100 | 99.2 | > 100 | 1.07 | > 100 | 1.56 | > 100 | > 63.3 | > 100 | 38.1 | > 100 | > 100 | > 100 | 9.3 | > 100
9 | CN1CCN(CCCn2c(=O)c3sc4ncccc4c3n3nnc(-c4ccccc4)c23)CC1 | 5.33 | 11.5 | 7.2 | 14.2 | 8.8 | 16.7 | 8.19 | 15.3 | 2.89 | 9.54 | 7.69 | 15 | 5.72 | 13.4 | 7.39 | 14.5 | 7.4 | 15.3 | 1.18 | 3.01
10 | COc1ccc(-c2nnc(COc3ccc(C(=O)/C=C/c4ccco4)cc3)o2)cc1 | 1.71 | 3.18 | 3.17 | 11.5 | 13.9 | 27.7 | 2.5 | 7.23 | 1.91 | 3.61 | 1.39 | 3.28 | 1.8 | 3.63 | 1.89 | 3.65 | 4 | 16.8 | 2.13 | 5.08
11 | Cc1cc(I)cc(CN(C)CCCN2CCCCC2)c1O | 13.5 | 28.5 | 49.9 | > 100 | 18.4 | 37 | 13.7 | 27 | 4.46 | 16.1 | 16.7 | 35.9 | 13.7 | 26.9 | 13.7 | 26.5 | 28.1 | > 100 | 15 | 33.4
12 | CC1(C)C2CCC(=O)C1CC2 (centres undefined) |  | > 100 |  | > 100 |  | > 100 |  | > 100 |  | > 100 |  | > 100 |  | > 100 |  | > 100 |  | > 100 |  | > 100
13 | Fc1cc2[nH]ncc2c2c3c(c(-c4cn[nH]c4)nc12)CCCC3 | 0.486 | 2.4 | 1.06 | 7.04 | 0.842 | 3.46 | 1.6 | > 21 | 1.24 | > 100 | 1.45 | 12.8 | 1.14 | 2.82 | 2.38 | > 28 | 1.28 | 5.85 | 0.959 | 3.61
14 | Nc1ncnc2c1nnn2C1OC(CO)C(O)C1O (centres undefined) |  | 3.77 |  | 6.77 |  | 1.74 |  | 5.78 |  | 21.9 |  | 16.8 |  | 9.04 | 0.38 | 14 |  | 12 | 0.273 | 2.44
15 | COc1c(Cl)c(=O)oc2ccc(Cl)cc12 |  | > 100 |  | > 100 |  | > 100 |  | > 100 |  | > 100 |  | > 100 |  | > 100 |  | > 100 |  | > 100 |  | > 100
16 | CCN(CC)c1ccc(-c2cc(-c3cc(OC)c(OC)c(OC)c3)nc(N3CCOCC3)c2C#N)cc1 | 0.189 | 0.791 | 0.805 | > 100 | 3.15 | > 26.2 | 2.24 | 16.5 | 0.532 | 8.87 | 2.03 | 17.7 | 1.36 | 12.7 | 1.9 | 9.94 | 2.34 | 42.2 | 1.32 | 13.7
17 | O=C(CCc1nnc2sc(-c3ccc(Cl)cc3Cl)nn12)c1nc2ncccc2[nH]1 | 1.69 | 3.08 | 1.99 | 4.92 | 2.59 | 7.27 | 2.18 | 6.77 | 2.93 | 11.8 | 2.59 | > 100 | 1.96 | 3.98 | 1.81 | 3.53 | 1.7 | 3.66 | 1.75 | 3.68
18 | COc1cc(OC)cc(-c2cc(=O)c3c(OC)c(OC)c(OC)c(OC)c3o2)c1 |  | > 100 |  | > 100 |  | 55.1 |  | > 100 |  | > 100 |  | > 100 |  | > 100 |  | > 100 |  | > 100 |  | > 100
19 | Cc1cc2c(cc1Cl)SC(N(N(C)C)S(=O)(=O)c1ccc(Cl)cc1)=NS2(=O)=O | 33.4 | > 100 | 24.3 | 72 | 20.1 | 66.6 | 29.6 | 96.1 | 27.1 | 99.2 | 12.6 | 48.3 | 18.2 | 45.8 | 34.8 | > 100 | 30.5 | 89.9 | 33.2 | > 100
20 | O=C1OC(O)[C@@H]2[C@H]1[C@H]1CC[C@@H]2O1 (some centres undefined) | > 100 | > 100 | > 92.3 | > 100 | 39 | > 82.4 | > 100 | > 100 | 4.99 | 32.2 | > 100 | > 100 | > 100 | > 100 | > 100 | > 100 | > 79.4 | > 100 | > 100 | > 100
21 | CCN1CCN(c2nc(C)cc(N(CCNc3ccnc4cc(Cl)ccc34)Cc3ccc4c(c3)OCO4)n2)CC1 | 1.77 | 3.35 | 2.58 | 8.27 | 1.98 | 3.85 | 2.21 | 11.5 | 1.83 | 4.83 | 1.98 | 5.89 | 1.7 | 3.18 | 1.54 | 3.08 | 15 | 33.6 | 1.7 | 3.25
22 | CC[C@H](Nc1ncnc2nc[nH]c12)c1oc2ccccc2c(=O)c1-c1cccc(F)c1 | 26.3 | > 100 | 19.7 | > 100 | 18.4 | 46.7 | 33.8 | > 100 | 28.3 | > 100 | 21.1 | > 100 | 31.4 | > 100 | 21.4 | > 100 | 30.3 | > 100 | 18.7 | 70.7
23 | O=S(=O)(CCn1c(Sc2ccccc2)c(Sc2ccccc2)c2ccccc21)c1ccccc1 |  | > 100 |  | > 100 |  | > 100 |  | > 100 |  | > 100 |  | > 100 |  | > 100 |  | > 100 |  | > 100 |  | > 100
24 | COC1=CC(=O)C(C2CC(=O)c3c(O)cc(O)cc3O2)=CC1=O (centres undefined) |  | 30.9 |  | 37.4 |  | 34.4 |  | 34.8 |  | > 61.3 |  | 42.3 |  | 39.5 |  | 31.7 |  | 40.4 |  | 31.6
25 | Cn1cnc([N+](=O)[O-])c1S(=O)(=O)Oc1cccc2ccccc12 | 2.04 | 5.73 | 5.71 | 20.5 | 4.42 | 20 | 2.56 | 5.45 | 1.8 | 3.99 | 3.56 | 14.5 | 2.23 | 5.59 | 14.4 | 29.3 | 3.79 | 31 | 2.31 | 7.21
26 | Cc1cc(/C=C/c2ccc3cc(N(C)C)ccc3[n+]2C)c(C)n1-c1ccccc1 | 0.121 | 0.884 | 0.159 | 0.636 | 0.27 | 1.06 | 0.191 | 1.03 | 0.133 | 2.52 | 0.169 | 3.37 | 0.336 | 2.47 | 0.262 | 1.53 | 0.117 | 0.74 | 0.177 | 0.8
27 | CCCCCCCC(=O)SCC/C=C/[C@@H]1CC(=O)NCc2cc(ccn2)C2=N[C@@](C)(CS2)C(=O)N[C@@H](C(C)C)C(=O)O1 | 0.0172 | 0.0666 | 0.0641 | > 33.3 | 0.015 | 0.595 | 0.00958 |  | 0.0112 | > 33.3 | 0.0377 | > 33.3 | 0.0203 | > 33.3 | 0.0291 | > 33.3 | 0.0818 | 1.62 | 0.0115 | 
28 | NC1(C(=O)OCc2ccccc2)CCCC1 |  | 37.7 |  | 54 |  | 40.2 |  | 46.7 |  | > 100 |  | > 100 |  | 31.7 |  | 42.8 |  | 91.7 |  | 41.2
